Tests used:
HCV Replicon IB = test: HCV replicon assay in Huh-7 cells, genotype 1b (Rluc luciferase readout); assay type: cell-based, hepatitis C virus; conditions: Hepatitis C virus, 72 h; 10 μM; Huh-7 HCV replicon cells, 3 days; read-out: % inhibition @ 10 μM HCV Replicon IB
HCV Replicon IA = test: HCV replicon assay in Huh-7 cells, genotype 1a; assay type: cell-based; conditions: Hepatitis C virus, 72 h, Huh-7 HCV replicon cells, 3 days

Row | Compound | inhibition at 10 µM (HCV Replicon IB) [%] | inhibition at 10 µM (HCV Replicon IA) [%]
1 | Nc1nc(C(=O)NCc2cccs2)nc2c(C(F)(F)F)cc(-c3ccccc3)cc12 [Compound 51] | 100 | 100
2 | CNc1nc(C(=O)NCc2cccs2)nc2c(C(F)(F)F)cc(-c3ccccc3)cc12 [Compound 52] | 100 | 99.6
3 | O=C(NCc1cccs1)c1nc(N2CCCC2)c2cc(-c3ccccc3)cc(C(F)(F)F)c2n1 [Compound 53] | 86.2 | 91.4
4 | Oc1cc(-c2nnc(Nc3ccccc3)o2)nc2c(C(F)(F)F)cc(-c3ccccc3)cc12 [Compound 54] | 98.7 | 97.9
5 | O=C(NCc1cccs1)c1cc(O)c2cc(-c3ccccc3)c(F)c(C(F)(F)F)c2n1 [Compound 59] | 97.2 | 92.7
6 | O=C(NCc1cccs1)c1cc(O)c2c(Cl)c(-c3ccccc3)cc(C(F)(F)F)c2n1 [Compound 64] | 88.2 | 79.2
7 | O=C(NCc1cccs1)c1cc(Cl)c2cc(-c3ccccc3)cc(C(F)(F)F)c2n1 [Compound 65] | 99.5 | 97.5
8 | Nc1cc(C(=O)NCc2cccs2)nc2c(C(F)(F)F)cc(-c3ccccc3)cc12 [Compound 66] | 99.9 | 99.9
9 | O=C(NCc1ccccn1)c1cc(Cl)c2cc(-c3ccccc3)cc(C(F)(F)F)c2n1 [Compound 67] | 97.8 | 96.9
10 | Nc1cc(C(=O)NCc2ccccn2)nc2c(C(F)(F)F)cc(-c3ccccc3)cc12 [Compound 68] | 99.7 | 99.9
11 | O=C(NCc1ccccn1)c1cc(O)c2cc(-c3ccccc3F)cc(C(F)(F)F)c2n1 [Compound 70] | 82 | 69.1

From patent US20120053148A1, “INHIBITORS OF HEPATITIS C VIRUS” (GILEAD SCIENCES, INC., priority 2010, published 2012)
